Assay results as given in PubChem BioAssay AID248 (DTP/NCI, 2004).
Toxic doses and inconclusive results are not listed. Rule as the data show it: active = T/C of 150% or more; inactive = T/C below 125%.

System: L1210 leukemia ip in BDF1 mice, survival T/C
Experiment: NCI In Vivo Anticancer Drug Screen. Data for tumor model L1210 Leukemia (intraperitoneal) in B6D2F1 (BDF1) mice
Conditions: endpoint: mean survival time, higher = longer survival
Outline: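 Each compound was tested against a transplantable tumor grown in mice. The endpoint was survival, with treated animals benchmarked against vehicle controls as a simple ratio.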

[1] = dose: 100.0 mg/kg/injection, schedule: Q01DX001 (ip), vehicle: saline
[2] = dose: 200.0 mg/kg/injection, schedule: Q01DX001 (ip), vehicle: saline
[3] = dose: 400.0 mg/kg/injection, schedule: Q01DX001 (ip), vehicle: saline
[4] = dose: 100.0 mg/kg/injection, schedule: Q04DX003 (ip), vehicle: Klucel (hydroxypropylcellulose) (HPC)
[5] = dose: 200.0 mg/kg/injection, schedule: Q04DX003 (ip), vehicle: Klucel (hydroxypropylcellulose) (HPC)
[6] = dose: 400.0 mg/kg/injection, schedule: Q04DX003 (ip), vehicle: Klucel (hydroxypropylcellulose) (HPC)
[7] = dose: 100.0 mg/kg/injection, schedule: Q04DX003 (ip), vehicle: saline with Tween-80
[8] = dose: 200.0 mg/kg/injection, schedule: Q04DX003 (ip), vehicle: saline with Tween-80
[9] = dose: 50.0 mg/kg/injection, schedule: Q01DX009 (ip), vehicle: Klucel (hydroxypropylcellulose) (HPC)
[10] = dose: 100.0 mg/kg/injection, schedule: Q01DX009 (ip), vehicle: Klucel (hydroxypropylcellulose) (HPC)
[11] = dose: 200.0 mg/kg/injection, schedule: Q01DX009 (ip), vehicle: Klucel (hydroxypropylcellulose) (HPC)
[12] = dose: 400.0 mg/kg/injection, schedule: Q01DX009 (ip), vehicle: Klucel (hydroxypropylcellulose) (HPC)
[13] = dose: 12.5 mg/kg/injection, schedule: Q01DX009 (ip), vehicle: saline with Tween-80
[14] = dose: 25.0 mg/kg/injection, schedule: Q01DX009 (ip), vehicle: saline with Tween-80
[15] = dose: 100.0 mg/kg/injection, schedule: Q01DX001 (ip), vehicle: saline with Tween-80
[16] = dose: 200.0 mg/kg/injection, schedule: Q01DX001 (ip), vehicle: saline with Tween-80
[17] = dose: 100.0 mg/kg/injection, schedule: Q01DX001 (ip), vehicle: Klucel (hydroxypropylcellulose) (HPC)
[18] = dose: 400.0 mg/kg/injection, schedule: Q01DX001 (ip), vehicle: Klucel (hydroxypropylcellulose) (HPC)
[19] = dose: 200.0 mg/kg/injection, schedule: Q01DX001 (ip), vehicle: Klucel (hydroxypropylcellulose) (HPC)
[20] = dose: 50.0 mg/kg/injection, schedule: Q01DX001 (ip), vehicle: saline

Measured: T/C

O=S(=O)(O)c1ccc2cc(N=Nc3c(O)ccc4ccccc34)ccc2c1
inactive: dose: 100.0 mg/kg/injection, schedule: Q04DX003 (ip), vehicle: carboxymethylcellulose (CMC) 95 % of control | dose: 200.0 mg/kg/injection, schedule: Q04DX003 (ip), vehicle: carboxymethylcellulose (CMC) 103 % of control | dose: 400.0 mg/kg/injection, schedule: Q04DX003 (ip), vehicle: carboxymethylcellulose (CMC) 95 % of control

CN1CC(=O)N=C1N
inactive: [1] 92 % of control | [2] 103 % of control | dose: 200.0 mg/kg/injection, schedule: Q01DX015 (ip), vehicle: saline 91 % of control | dose: 250.0 mg/kg/injection, schedule: Q#A X Z (ip), vehicle: water 109 % of control | [3] 92 % of control | dose: 400.0 mg/kg/injection, schedule: Q01DX015 (ip), vehicle: saline 121 % of control | dose: 500.0 mg/kg/injection, schedule: Q#A X Z (ip), vehicle: water 100 % of control | dose: 800.0 mg/kg/injection, schedule: Q01DX015 (ip), vehicle: saline 94 % of control | dose: 1250.0 mg/kg/injection, schedule: Q#A X Z (ip), vehicle: water 100 % of control | dose: 1600.0 mg/kg/injection, schedule: Q01DX015 (ip), vehicle: saline 100 % of control

O=C(CI)NCc1ccccc1
inactive: dose: 75.0 mg/kg/injection, schedule: Q01DX001 (ip), vehicle: saline 96 % of control

Cc1ccc(Nc2cc(N)nc(N)n2)cc1C
inactive: dose: 25.0 mg/kg/injection, schedule: Q01DX Z (ip), vehicle: methylcellulose (MC) 97 % of control | dose: 50.0 mg/kg/injection, schedule: Q01DX Z (ip), vehicle: methylcellulose (MC) 114 % of control

COc1ccc(C(=O)/C=C/c2ccc(OC)c(Br)c2)cc1
inactive: [4] 95 % of control | [5] 95 % of control | [6] 94 % of control

CCC(C)C(CN)(CCCCN(C)C)c1cccc2ccccc12 (stereo unspecified)
inactive: [7] 97 % of control | [8] 100 % of control

O=C(NNCc1ccccc1)C(O)C(O)C(O)CO (stereo unspecified)
inactive: dose: 25.0 mg/kg/injection, schedule: Q01DX009 (ip), vehicle: Klucel (hydroxypropylcellulose) (HPC) 93 % of control | [9] 96 % of control | [10] 104 % of control | [11] 94 % of control | [12] 103 % of control

CNC(=O)Nc1nc2ccccc2[nH]1
inactive: [1] 103 % of control | [7] 109 % of control | [2] 115 % of control | [8] 109 % of control | [3] 100 % of control

COC1(c2ccc(Cl)cc2)OC(=O)C(c2ccccc2)=C1Cc1ccccc1 (stereo unspecified)
inactive: [13] 93 % of control | [14] 89 % of control | dose: 50.0 mg/kg/injection, schedule: Q01DX009 (ip), vehicle: saline with Tween-80 100 % of control

NNC(=O)C(Oc1ccccc1Cl)c1ccccc1 (stereo unspecified)
inactive: dose: 100.0 mg/kg/injection, schedule: Q01DX001 (ip), vehicle: carboxymethylcellulose (CMC) 105 % of control | dose: 200.0 mg/kg/injection, schedule: Q01DX001 (ip), vehicle: carboxymethylcellulose (CMC) 97 % of control | dose: 400.0 mg/kg/injection, schedule: Q01DX001 (ip), vehicle: carboxymethylcellulose (CMC) 105 % of control

O=S(c1ccccc1)C(Cl)C1(O)CCCCC1 (stereo unspecified)
inactive: dose: 100.0 mg/kg/injection, schedule: Q03DX002 (ip), vehicle: saline with Tween-80 98 % of control | dose: 200.0 mg/kg/injection, schedule: Q03DX002 (ip), vehicle: saline with Tween-80 98 % of control | dose: 400.0 mg/kg/injection, schedule: Q03DX002 (ip), vehicle: saline with Tween-80 102 % of control

O=C1C2C=CC=CC1C1C=CC2C1
inactive: [15] 93 % of control | [16] 104 % of control | dose: 400.0 mg/kg/injection, schedule: Q01DX001 (ip), vehicle: saline with Tween-80 101 % of control

O=c1[nH][nH]c2c1cnc1ccccc12
inactive: [9] 97 % of control | [10] 101 % of control | [11] 94 % of control

O=C(O)/C=C(\CC(=O)O)C(=O)O
inactive: [17] 95 % of control | [1] 92 % of control | [2] 90 % of control | [18] 95 % of control | [3] 98 % of control

O=c1c2ccccc2cc2ccccn12
inactive: [10] 100 % of control | [4] 95 % of control | [11] 94 % of control | [5] 97 % of control | [12] 92 % of control | [6] 97 % of control

N#[N+]c1nc2ncnc(N)c2[nH]1
inactive: dose: 12.5 mg/kg/injection, schedule: Q01DX Z (ip), vehicle: saline 107 % of control | dose: 25.0 mg/kg/injection, schedule: Q01DX Z (ip), vehicle: saline 114 % of control

O=C(Nc1cc([N+](=O)[O-])ccc1O)Nc1cc([N+](=O)[O-])ccc1F
inactive: [4] 100 % of control | [5] 94 % of control | [6] 98 % of control

CCOC(=O)c1[nH]c(-c2ccccc2)c(C=O)c1-c1ccccc1
inactive: [17] 100 % of control | [19] 100 % of control | [18] 100 % of control

Cc1[nH]c(N)nc(=S)c1CCCOc1ccc([N+](=O)[O-])cc1
inactive: [9] 112 % of control | [10] 96 % of control | [11] 102 % of control

CC(=O)OC1C(C(=O)O)CC(C(=O)O)C1OC(C)=O (stereo unspecified)
inactive: dose: 88.0 mg/kg/injection, schedule: Q01DX001 (ip), vehicle: saline 88 % of control | [1] 108 % of control | dose: 133.0 mg/kg/injection, schedule: Q01DX001 (ip), vehicle: saline 98 % of control | [2] 98 % of control | dose: 300.0 mg/kg/injection, schedule: Q01DX001 (ip), vehicle: saline 98 % of control | [3] 106 % of control

CCOC(c1ccccc1)(c1ccccc1)c1ccccc1
inactive: [7] 101 % of control | [8] 90 % of control | dose: 400.0 mg/kg/injection, schedule: Q04DX003 (ip), vehicle: saline with Tween-80 91 % of control

O=C(NCc1ccccc1)NCc1ccccc1
inactive: [17] 112 % of control | [19] 97 % of control | [18] 105 % of control

CC(C)(C)N
inactive: dose: 100.0 mg/kg/injection, schedule: Q04DX002 (ip), vehicle: saline 101 % of control | dose: 200.0 mg/kg/injection, schedule: Q04DX002 (ip), vehicle: saline 101 % of control | dose: 400.0 mg/kg/injection, schedule: Q04DX002 (ip), vehicle: saline 97 % of control

Cc1c(/C=C/[N+](=O)[O-])cc(C)c2c3c(oc12)CCCC3
inactive: [20] 98 % of control | [1] 93 % of control | [2] 102 % of control

O=C(COc1ccccc1[N+](=O)[O-])Nc1ccccc1C(=O)O
inactive: [15] 92 % of control | [16] 92 % of control

CC(=O)Nc1ccc(OC(C)(C)C)cc1
inactive: [20] 101 % of control | [1] 106 % of control | [2] 97 % of control | [3] 95 % of control

ClC1=NC(Cl)C(Cl)=N/C1=N\c1ncn[nH]1 (stereo unspecified)
inactive: dose: 6.25 mg/kg/injection, schedule: Q01DX009 (ip), vehicle: saline with Tween-80 103 % of control | [13] 97 % of control | [14] 105 % of control | dose: 31.25 mg/kg/injection, schedule: Q01DX009 (ip), vehicle: saline with Tween-80 87 % of control
